Laboratory results reported in publication PMC7886321, “Deciphering the LRRK code: LRRK1 and LRRK2 phosphorylate distinct Rab proteins and are regulated by diverse mechanisms” (Biochemical Journal, 2021).

How the values were obtained:
[1] = molecular target: T1, LRRK1 (Homo sapiens, UniProt Q38SD2); assay: in vitro kinase assay, Rab7A Ser72 phosphorylation by immunoblot, […] ATP; assay type: biochemical
T1 construct: recombinant LRRK1, residues 28 to 2015

[2] = molecular target: T2, LRRK2 (Homo sapiens, UniProt Q5S007); assay: HEK293 overexpression, pRab10 Thr73 and pSer935 LRRK2 immunoblot; assay type: cell-based
T2 construct: wild type LRRK2 overexpressed in HEK293 cells
T2 sequence (Q5S007 whole entry): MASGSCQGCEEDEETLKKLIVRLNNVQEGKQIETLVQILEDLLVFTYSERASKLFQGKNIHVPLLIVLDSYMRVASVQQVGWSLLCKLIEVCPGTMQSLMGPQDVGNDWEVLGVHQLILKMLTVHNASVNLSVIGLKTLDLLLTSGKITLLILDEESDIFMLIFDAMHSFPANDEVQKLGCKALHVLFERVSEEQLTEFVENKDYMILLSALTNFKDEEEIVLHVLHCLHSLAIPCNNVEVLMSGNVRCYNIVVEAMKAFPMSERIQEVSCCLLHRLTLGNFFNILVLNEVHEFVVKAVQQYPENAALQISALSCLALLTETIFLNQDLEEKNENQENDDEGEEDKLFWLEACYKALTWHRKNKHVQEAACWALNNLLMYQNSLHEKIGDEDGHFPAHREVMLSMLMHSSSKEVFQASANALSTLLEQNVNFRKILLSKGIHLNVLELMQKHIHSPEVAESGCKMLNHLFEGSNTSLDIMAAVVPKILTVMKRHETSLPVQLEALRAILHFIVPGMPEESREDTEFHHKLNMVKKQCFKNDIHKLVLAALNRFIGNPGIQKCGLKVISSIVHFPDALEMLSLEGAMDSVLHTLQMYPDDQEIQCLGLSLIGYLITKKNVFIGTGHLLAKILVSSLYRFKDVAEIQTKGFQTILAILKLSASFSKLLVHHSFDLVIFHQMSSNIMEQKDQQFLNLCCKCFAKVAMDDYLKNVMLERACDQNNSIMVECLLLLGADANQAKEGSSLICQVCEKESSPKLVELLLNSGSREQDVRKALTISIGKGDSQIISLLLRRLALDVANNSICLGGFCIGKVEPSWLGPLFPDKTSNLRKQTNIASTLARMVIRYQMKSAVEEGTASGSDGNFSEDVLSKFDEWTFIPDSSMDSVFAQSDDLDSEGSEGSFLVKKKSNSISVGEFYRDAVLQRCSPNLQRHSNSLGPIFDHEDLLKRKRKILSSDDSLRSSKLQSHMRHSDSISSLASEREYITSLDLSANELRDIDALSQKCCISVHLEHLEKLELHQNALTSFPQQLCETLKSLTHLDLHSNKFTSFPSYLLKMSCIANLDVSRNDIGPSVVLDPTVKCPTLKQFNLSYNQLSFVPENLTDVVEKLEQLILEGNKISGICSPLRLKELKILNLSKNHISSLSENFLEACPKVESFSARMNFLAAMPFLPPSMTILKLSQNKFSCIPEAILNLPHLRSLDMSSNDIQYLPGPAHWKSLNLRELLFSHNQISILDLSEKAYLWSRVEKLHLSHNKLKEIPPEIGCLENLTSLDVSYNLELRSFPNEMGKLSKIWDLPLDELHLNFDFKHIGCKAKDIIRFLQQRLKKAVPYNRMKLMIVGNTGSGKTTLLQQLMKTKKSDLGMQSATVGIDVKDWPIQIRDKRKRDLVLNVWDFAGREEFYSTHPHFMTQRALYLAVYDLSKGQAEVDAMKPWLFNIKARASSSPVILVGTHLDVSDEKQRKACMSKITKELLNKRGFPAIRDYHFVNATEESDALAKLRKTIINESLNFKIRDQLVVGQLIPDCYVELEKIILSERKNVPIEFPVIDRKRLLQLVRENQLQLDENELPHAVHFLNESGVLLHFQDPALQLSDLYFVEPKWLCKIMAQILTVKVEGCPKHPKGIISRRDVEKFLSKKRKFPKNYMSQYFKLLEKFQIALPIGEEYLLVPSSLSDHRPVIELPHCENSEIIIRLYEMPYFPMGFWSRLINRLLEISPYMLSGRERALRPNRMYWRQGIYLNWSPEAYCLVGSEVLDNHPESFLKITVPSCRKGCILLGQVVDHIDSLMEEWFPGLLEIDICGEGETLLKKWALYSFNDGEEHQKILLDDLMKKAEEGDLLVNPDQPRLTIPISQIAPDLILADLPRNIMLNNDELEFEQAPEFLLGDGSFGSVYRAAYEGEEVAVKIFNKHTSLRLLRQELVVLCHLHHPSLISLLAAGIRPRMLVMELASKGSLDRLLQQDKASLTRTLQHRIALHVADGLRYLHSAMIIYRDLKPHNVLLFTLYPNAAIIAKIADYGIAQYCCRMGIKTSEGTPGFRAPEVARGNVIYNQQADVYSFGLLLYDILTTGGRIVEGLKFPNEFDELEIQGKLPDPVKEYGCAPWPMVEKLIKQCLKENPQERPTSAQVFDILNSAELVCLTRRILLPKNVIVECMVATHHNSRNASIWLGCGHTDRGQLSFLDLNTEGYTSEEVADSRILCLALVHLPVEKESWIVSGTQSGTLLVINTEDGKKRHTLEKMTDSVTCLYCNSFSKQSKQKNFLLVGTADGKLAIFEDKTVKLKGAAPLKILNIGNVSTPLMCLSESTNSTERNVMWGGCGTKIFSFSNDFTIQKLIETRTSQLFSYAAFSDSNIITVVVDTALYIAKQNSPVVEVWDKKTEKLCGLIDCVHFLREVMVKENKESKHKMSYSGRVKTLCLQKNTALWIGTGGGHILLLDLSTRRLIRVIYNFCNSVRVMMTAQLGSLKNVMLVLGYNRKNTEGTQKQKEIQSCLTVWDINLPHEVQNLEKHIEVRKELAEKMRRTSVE

T1 sequence (Q38SD2 28-2015): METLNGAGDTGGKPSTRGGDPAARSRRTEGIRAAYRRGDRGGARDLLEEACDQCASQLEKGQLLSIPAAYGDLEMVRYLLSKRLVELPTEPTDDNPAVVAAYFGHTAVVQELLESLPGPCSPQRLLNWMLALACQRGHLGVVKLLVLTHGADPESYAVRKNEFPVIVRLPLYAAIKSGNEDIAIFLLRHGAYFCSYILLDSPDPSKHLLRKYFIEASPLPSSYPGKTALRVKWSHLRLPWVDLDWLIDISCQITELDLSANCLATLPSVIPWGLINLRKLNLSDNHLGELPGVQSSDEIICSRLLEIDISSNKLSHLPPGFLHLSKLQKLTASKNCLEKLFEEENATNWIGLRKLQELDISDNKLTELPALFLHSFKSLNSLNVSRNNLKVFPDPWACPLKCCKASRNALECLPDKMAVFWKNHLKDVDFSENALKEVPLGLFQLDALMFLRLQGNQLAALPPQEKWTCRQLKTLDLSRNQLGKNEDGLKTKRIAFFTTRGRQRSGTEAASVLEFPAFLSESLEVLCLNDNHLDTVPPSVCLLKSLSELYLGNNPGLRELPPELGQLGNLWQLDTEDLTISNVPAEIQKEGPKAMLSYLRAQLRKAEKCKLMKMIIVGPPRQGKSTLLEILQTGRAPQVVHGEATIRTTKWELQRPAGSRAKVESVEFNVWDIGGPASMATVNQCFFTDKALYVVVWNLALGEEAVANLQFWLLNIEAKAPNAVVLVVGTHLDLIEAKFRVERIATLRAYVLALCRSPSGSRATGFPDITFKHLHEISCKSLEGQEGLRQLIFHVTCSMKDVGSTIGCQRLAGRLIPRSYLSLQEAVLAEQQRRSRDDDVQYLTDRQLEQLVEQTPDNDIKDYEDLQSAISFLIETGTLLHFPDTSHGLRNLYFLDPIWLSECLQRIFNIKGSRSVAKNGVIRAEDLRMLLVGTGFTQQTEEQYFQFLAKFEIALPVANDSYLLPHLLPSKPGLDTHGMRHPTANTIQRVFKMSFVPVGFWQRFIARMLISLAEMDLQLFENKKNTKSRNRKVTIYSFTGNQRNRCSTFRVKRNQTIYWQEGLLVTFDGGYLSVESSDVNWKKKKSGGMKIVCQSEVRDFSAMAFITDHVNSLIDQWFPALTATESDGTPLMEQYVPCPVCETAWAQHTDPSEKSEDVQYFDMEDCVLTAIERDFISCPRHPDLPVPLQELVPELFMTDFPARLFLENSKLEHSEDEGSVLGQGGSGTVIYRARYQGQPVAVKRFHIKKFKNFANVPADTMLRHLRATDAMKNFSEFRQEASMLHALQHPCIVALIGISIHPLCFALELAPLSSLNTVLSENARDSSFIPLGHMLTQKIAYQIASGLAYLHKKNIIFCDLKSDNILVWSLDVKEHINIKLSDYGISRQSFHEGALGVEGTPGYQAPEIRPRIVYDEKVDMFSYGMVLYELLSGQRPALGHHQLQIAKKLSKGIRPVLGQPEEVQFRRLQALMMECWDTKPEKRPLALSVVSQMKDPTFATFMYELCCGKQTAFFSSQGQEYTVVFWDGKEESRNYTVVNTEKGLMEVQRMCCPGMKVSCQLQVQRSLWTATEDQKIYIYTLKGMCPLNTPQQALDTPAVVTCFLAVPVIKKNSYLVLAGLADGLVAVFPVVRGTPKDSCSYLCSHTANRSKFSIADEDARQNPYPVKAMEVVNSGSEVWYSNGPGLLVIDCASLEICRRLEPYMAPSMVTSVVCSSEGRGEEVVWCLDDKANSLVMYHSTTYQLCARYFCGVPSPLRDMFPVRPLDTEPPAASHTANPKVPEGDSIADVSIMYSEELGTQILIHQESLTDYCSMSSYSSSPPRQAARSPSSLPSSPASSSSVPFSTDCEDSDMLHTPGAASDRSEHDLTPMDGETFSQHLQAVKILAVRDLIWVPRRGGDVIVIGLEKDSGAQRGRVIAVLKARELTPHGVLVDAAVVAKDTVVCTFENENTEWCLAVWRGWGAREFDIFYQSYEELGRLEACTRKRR

Compound: Cc1ccc(C(=O)Nc2ccc(CN3CCN(C)CC3)c(C(F)(F)F)c2)cc1C#Cc1cnc2[nH]ncc2c1 [GZD-824]
- IC50 [1]: ~20 nM

Compound: O=C(Nc1cccnc1)c1cc(-c2ccnc(F)c2)ccc1OCc1ccccc1 [GSK2578215A]
- HEK293 overexpression, pRab10 Thr73 and pSer935 LRRK2 immunoblot [2]: All inhibitors ablated LRRK2-mediated phosphorylation of Rab10 at Thr73 and LRRK2 at Ser935 in parallel experiments.

Compound: COc1cc(C(=O)N2CCC(N3CCN(C)CC3)CC2)ccc1Nc1ncc2c(n1)N(C)c1ccccc1C(=O)N2C [LRRK2-IN1]
- HEK293 overexpression, pRab10 Thr73 and pSer935 LRRK2 immunoblot [2]: All inhibitors ablated LRRK2-mediated phosphorylation of Rab10 at Thr73 and LRRK2 at Ser935 in parallel experiments.
